Test results from patent US10064888B2, “Pectin based nanoparticles” (TECHNION RESEARCH & DEVELOPMENT FOUNDATION LTD., priority 2013, dated 2018).

Test: Residual curcumin during simulated shelf life, absorbance at 415 nm
Assay type: physicochemical
Details: over a period of 11 days, with respect to time 0
Experimental: FIG. 3. Is a graph depicting the SBP protective effect. Residual percentage of curcumin (with respect to time 0) during simulated shelf life, without and with protection by SBP. Curcumin was determined by absorbance at 415 nm (maximal absorbance of curcumin) as determined by a UV-Visible light spectrophotometer.

decrease of curcumin during simulated shelf life: approximately 40%
Compound: COc1cc(/C=C/C(=O)CC(=O)/C=C/c2ccc(O)c(OC)c2)ccc1O [curcumin]
